Source: ChEMBL document CHEMBL3885881, “DrugMatrix”

Organism: Rattus norvegicus
Type: toxicity, organism-based, Sprague-Dawley
Conditions: in vivo, po, route oral GAVAGE, vehicle 100 % SALINE; for ABSOLUTE EOSINOPHIL / ABSOLUTE LYMPHOCYTE / ABSOLUTE MONOCYTE / ABSOLUTE SEGMENTED NEUTROPHIL / BASOPHIL / EOSINOPHIL / ERYTHROCYTE COUNT / HEMATOCRIT / HEMOGLOBIN / LEUKOCYTE COUNT / LYMPHOCYTE / MEAN CORPUSCULAR HEMOGLOBIN / MEAN CORPUSCULAR HEMOGLOBIN CONCENTRATION / MONOCYTE / NEUTROPHIL / NUCLEATED RED BLOOD CELLS / PLATELET COUNT: tissue Blood; for ALANINE AMINOTRANSFERASE / ALBUMIN / ALKALINE PHOSPHATASE / ASPARTATE AMINOTRANSFERASE / BLOOD UREA NITROGEN / CARBON DIOXIDE / CHLORIDE / CHOLESTEROL / CREATINE PHOSPHOKINASE / CREATININE / GLUCOSE / LACTATE DEHYDROGENASE / LIPASE / PHOSPHORUS / POTASSIUM / SODIUM / TOTAL BILIRUBIN / TOTAL PROTEIN / URIC ACID: tissue Plasma
[1] = 0 mg/kg, 6 h, vehicle control, dose level Control, time 0.25 day
[2] = 0 mg/kg, 24 h, vehicle control, dose level Control, time 1 day
[3] = 700 mg/kg, 6 h, dose level Low, time 0.25 day

Description: DrugMatrix - Regimen: Single

CN(C)C=O [DIMETHYLFORMAMIDE]
ABSOLUTE EOSINOPHIL [1]: 24 CELLS/uL
ABSOLUTE LYMPHOCYTE [1]: 11958.17 CELLS/uL
ABSOLUTE MONOCYTE [1]: 398.83 CELLS/uL
ABSOLUTE SEGMENTED NEUTROPHIL [1]: 1252.33 CELLS/uL
BASOPHIL [1]: 0%
EOSINOPHIL [1]: 0.17%
ERYTHROCYTE COUNT [1]: 5.37 x10E6/uL
HEMATOCRIT [1]: 35.6%
HEMOGLOBIN [1]: 13.05 G/DL
LEUKOCYTE COUNT [1]: 13.63 x10E3/uL
LYMPHOCYTE [1]: 87.67%
MEAN CORPUSCULAR HEMOGLOBIN [1]: 24.28 pg
MEAN CORPUSCULAR HEMOGLOBIN CONCENTRATION [1]: 36.67 G/DL
MONOCYTE [1]: 2.83%
NEUTROPHIL [1]: 9.33%
NUCLEATED RED BLOOD CELLS [1]: 0 /100WBC
PLATELET COUNT [1]: 947.83 x10E3/uL
ALANINE AMINOTRANSFERASE [1]: 51 u/L
ALBUMIN [1]: 4.02 G/DL
ALKALINE PHOSPHATASE [1]: 312.33 u/L
ASPARTATE AMINOTRANSFERASE [1]: 98.17 u/L
BLOOD UREA NITROGEN [1]: 9.5 mg/dL
CARBON DIOXIDE [1]: 18.83 mmol/L
CHLORIDE [1]: 103.5 MEQ/L
CHOLESTEROL [1]: 69.5 mg/dL
CREATINE PHOSPHOKINASE [1]: 580.17 u/L
CREATININE [1]: 0.53 mg/dL
GLUCOSE [1]: 175.67 mg/dL
LACTATE DEHYDROGENASE [1]: 295.5 u/L
LIPASE [1]: 8.17 u/L
PHOSPHORUS [1]: 14.12 mg/dL
POTASSIUM [1]: 5.77 MEQ/L
SODIUM [1]: 144.13 MEQ/L
TOTAL BILIRUBIN [1]: 0.12 mg/dL
TOTAL PROTEIN [1]: 4.87 G/DL
URIC ACID [1]: 2.25 mg/dL
ABSOLUTE EOSINOPHIL [2]: 0 CELLS/uL
ABSOLUTE LYMPHOCYTE [2]: 12232.83 CELLS/uL
ABSOLUTE SEGMENTED NEUTROPHIL [2]: 780.17 CELLS/uL
BASOPHIL [2]: 0%
EOSINOPHIL [2]: 0%
ERYTHROCYTE COUNT [2]: 5.18 x10E6/uL
HEMATOCRIT [2]: 33.48%
HEMOGLOBIN [2]: 13.22 G/DL
LEUKOCYTE COUNT [2]: 13.03 x10E3/uL
LYMPHOCYTE [2]: 93.33%
MEAN CORPUSCULAR HEMOGLOBIN [2]: 25.57 pg
MEAN CORPUSCULAR HEMOGLOBIN CONCENTRATION [2]: 39.52 G/DL
MONOCYTE [2]: 0.17%
NEUTROPHIL [2]: 6.5%
NUCLEATED RED BLOOD CELLS [2]: 0 /100WBC
PLATELET COUNT [2]: 931.5 x10E3/uL
ALANINE AMINOTRANSFERASE [2]: 60.83 u/L
ALBUMIN [2]: 4.18 G/DL
ALKALINE PHOSPHATASE [2]: 283.33 u/L
ASPARTATE AMINOTRANSFERASE [2]: 80.5 u/L
BLOOD UREA NITROGEN [2]: 11.83 mg/dL
CARBON DIOXIDE [2]: 35.33 mmol/L
CHLORIDE [2]: 98.5 MEQ/L
CHOLESTEROL [2]: 80 mg/dL
CREATINE PHOSPHOKINASE [2]: 181.83 u/L
CREATININE [2]: 0.2 mg/dL
GLUCOSE [2]: 142.67 mg/dL
LACTATE DEHYDROGENASE [2]: 65.5 u/L
LIPASE [2]: 9.83 u/L
PHOSPHORUS [2]: 9.82 mg/dL
POTASSIUM [2]: 5.69 MEQ/L
SODIUM [2]: 143.35 MEQ/L
TOTAL BILIRUBIN [2]: 0.15 mg/dL
TOTAL PROTEIN [2]: 6.2 G/DL
URIC ACID [2]: 0.42 mg/dL
ABSOLUTE EOSINOPHIL [3]: 9.5 CELLS/uL
ABSOLUTE LYMPHOCYTE [3]: 11164.33 CELLS/uL
ABSOLUTE MONOCYTE [3]: 139.17 CELLS/uL
ABSOLUTE SEGMENTED NEUTROPHIL [3]: 1270.33 CELLS/uL
BASOPHIL [3]: 0%
EOSINOPHIL [3]: 0.17%
ERYTHROCYTE COUNT [3]: 5.55 x10E6/uL
HEMATOCRIT [3]: 36.67%
HEMOGLOBIN [3]: 12.92 G/DL
LEUKOCYTE COUNT [3]: 12.58 x10E3/uL
LYMPHOCYTE [3]: 88.83%
MEAN CORPUSCULAR HEMOGLOBIN [3]: 23.45 pg
MEAN CORPUSCULAR HEMOGLOBIN CONCENTRATION [3]: 35.43 G/DL
MONOCYTE [3]: 1%
NEUTROPHIL [3]: 10%
NUCLEATED RED BLOOD CELLS [3]: 0 /100WBC
PLATELET COUNT [3]: 1098.83 x10E3/uL
ALANINE AMINOTRANSFERASE [3]: 66.17 u/L
ALBUMIN [3]: 4.17 G/DL
ALKALINE PHOSPHATASE [3]: 259.5 u/L
ASPARTATE AMINOTRANSFERASE [3]: 125.5 u/L
BLOOD UREA NITROGEN [3]: 9.33 mg/dL
CARBON DIOXIDE [3]: 17.83 mmol/L
CHLORIDE [3]: 103 MEQ/L
CHOLESTEROL [3]: 67.67 mg/dL
CREATINE PHOSPHOKINASE [3]: 882.33 u/L
CREATININE [3]: 0.3 mg/dL
GLUCOSE [3]: 174.5 mg/dL
LACTATE DEHYDROGENASE [3]: 297.17 u/L
LIPASE [3]: 9.83 u/L
PHOSPHORUS [3]: 15.98 mg/dL
POTASSIUM [3]: 6.92 MEQ/L
SODIUM [3]: 144.05 MEQ/L
TOTAL BILIRUBIN [3]: 0.13 mg/dL
TOTAL PROTEIN [3]: 5.7 G/DL
URIC ACID [3]: 3.3 mg/dL
